Experimental data reported in paper PMC7382816 (BMC Pharmacology & Toxicology, 2020).
Where two headings read alike, the source gives them in different places.

Experiments:
[1] = Single-dose pharmacokinetics in healthy volunteers under fasting and fed (high-fat breakfast) conditions, plasma concentrations by HPLC-MS, non-compartmental analysis; format: in vivo, human; parameters: Ke: unit not given here; conditions: for AUC(0-inf) / CL/F / Vd/F / half-life / Cmax / Tmax: human, plasma; for Cmax: read-out: Cmax
Source text: The bioequivalence clinical trials were phase I, randomized, open-label, crossover, single-centre, with two periods separated by a 7-day washout stage. Subjects were randomised to one of the two treatment sequences, RT or TR where R was the reference formulation and T was the test formulation. Each of the clinical trial was crossover for evaluation of a test formulation compared to a reference formulation either under fed or fasting conditions. […] The treatments were allocated in a balanced manner on every inclusion day (blocks of 4 subjects). Our study adheres to CONSORT guidelines. […] Sample processing, genotyping for CYP2C19 and drug quantification were performed according to Román et al. […] Pharmacokinetic parameters were estimated from the plasma concentration–time data by non-compartmental analysis (WinNonlin Professional, version 2.0., Pharsight Corporation, USA) as reported by Román et al. […] WinNonLin Professional software version 2.0 was used for the statistical analysis. Pharmacokinetic parameters were log-transformed, and AUC and Cmax were adjusted for dose and weight. The values of pharmacokinetic parameters were expressed as mean ± standard deviation.

[2] = 40 mg; ref [27] Huber et al.; cited from earlier work
[3] = both sexes, oral, only CYP2C19*1/*1 subjects, Fast, men and women, mean ± SD
[4] = both sexes, oral, only CYP2C19*1/*1 subjects, Fed, men and women, mean ± SD
[5] = both sexes, po, Fast, all subjects, single oral dose, mean ± SD
[6] = both sexes, po, Fed (high-fat breakfast), all subjects, single oral dose, mean ± SD
[7] = female, oral, only CYP2C19*1/*1 subjects, Fast, women, mean ± SD
[8] = female, oral, only CYP2C19*1/*1 subjects, Fed, women, mean ± SD
[9] = female, po, Fast, women, single oral dose, mean ± SD
[10] = female, po, Fed, women, single oral dose, mean ± SD
[11] = male, oral, only CYP2C19*1/*1 subjects, Fast, men, mean ± SD
[12] = male, oral, only CYP2C19*1/*1 subjects, Fed, men, mean ± SD
[13] = male, po, Fast, men, single oral dose, mean ± SD
[14] = male, po, Fed, men, single oral dose, mean ± SD

Ke ([1]; Fast, all subjects, single oral dose, mean ± SD): 0.61 ± 0.21
Ke ([1]; Fast, men, single oral dose, mean ± SD): 0.56 ± 0.23
Ke ([1]; Fast, women, single oral dose, mean ± SD): 0.65 ± 0.18
Ke ([1]; Fed (high-fat breakfast), all subjects, single oral dose, mean ± SD): 0.63 ± 0.21
Ke ([1]; Fed, men, single oral dose, mean ± SD): 0.61 ± 0.23
Ke ([1]; Fed, women, single oral dose, mean ± SD): 0.65 ± 0.19
AUC(0-inf) [1, 3]: 6090 ± 2920 ng·h/mL
CL/F [1, 3]: 2 mL/min/kg
Vd/F [1, 3]: 0.18 ± 0.03 L/kg
half-life [1, 3]: 1.2 ± 0.4 h
Cmax [1, 3]: 2540 ± 836 ng/mL
Tmax ([1]; both sexes, oral, only CYP2C19*1/*1 subjects, Fast, men and women, mean ± SD, read-out: Tmax): 3 ± 0.7 h
AUC(0-inf) [1, 4]: 4690 ± 2300 ng·h/mL
CL/F [1, 4]: 2.67 mL/min/kg
Vd/F [1, 4]: 0.24 ± 0.05 L/kg
half-life [1, 4]: 1.2 ± 0.5 h
Cmax [1, 4]: 2660 ± 531 ng/mL
Tmax ([1]; both sexes, oral, only CYP2C19*1/*1 subjects, Fed, men and women, mean ± SD, read-out: Tmax): 5.7 ± 1.2 h
Tmax ([1]; both sexes, oral, under fasting conditions, range among subjects, read-out: Tmax range): 1.5 to 5 h
Tmax ([1]; both sexes, oral, under fed conditions, range among subjects, read-out: Tmax range): 1 to 21 h
AUC(0-inf) [1, 5]: 6950 ± 3290 ng·h/mL
CL/F [1, 5]: 1.83 mL/min/kg
Vd/F [1, 5]: 0.17 ± 0.03 L/kg
half-life [1, 5]: 1.3 ± 0.6 h
Cmax [1, 5]: 2780 ± 862 ng/mL
Tmax ([1]; both sexes, po, Fast, all subjects, single oral dose, mean ± SD, read-out: Tmax): 3 ± 0.8 h
AUC(0-inf) [1, 6]: 4630 ± 2020 ng·h/mL
CL/F [1, 6]: 2.67 mL/min/kg
Vd/F [1, 6]: 0.26 ± 0.1 L/kg
half-life [1, 6]: 1.3 ± 0.6 h
Cmax [1, 6]: 2650 ± 603 ng/mL
Tmax ([1]; both sexes, po, Fed (high-fat breakfast), all subjects, single oral dose, mean ± SD, read-out: Tmax): 7 ± 3 h
AUC lower under fed conditions ([1]; fed vs fasting, all subjects): 33%
Delay of mean Tmax (absorption) by food ([1]; fed vs fasting, all subjects): around 4 h
Delay of Tmax by food ([1]; fed vs fasting, only subjects with CYP2C19*1/*1): 2.7 h
AUC(0-inf) [1, 7]: 7820 ± 2700 ng·h/mL
CL/F [1, 7]: 1.83 mL/min/kg
Vd/F [1, 7]: 0.16 ± 0.04 L/kg
half-life [1, 7]: 1.1 ± 0.2 h
Cmax [1, 7]: 3230 ± 685 ng/mL
Tmax ([1]; female, oral, only CYP2C19*1/*1 subjects, Fast, women, mean ± SD, read-out: Tmax): 2.9 ± 0.8 h
AUC(0-inf) [1, 8]: 4910 ± 2190 ng·h/mL
CL/F [1, 8]: 2.83 mL/min/kg
Vd/F [1, 8]: 0.25 ± 0.06 L/kg
half-life [1, 8]: 1.1 ± 0.3 h
Cmax [1, 8]: 2790 ± 476 ng/mL
Tmax ([1]; female, oral, only CYP2C19*1/*1 subjects, Fed, women, mean ± SD, read-out: Tmax): 6.2 ± 1.1 h
AUC(0-inf) [1, 9]: 7320 ± 2710 ng·h/mL
CL/F [1, 9]: 1.83 mL/min/kg
Vd/F [1, 9]: 0.16 ± 0.03 L/kg
half-life [1, 9]: 1.1 ± 0.3 h
Cmax [1, 9]: 3240 ± 859 ng/mL
Tmax ([1]; female, po, Fast, women, single oral dose, mean ± SD, read-out: Tmax): 2.9 ± 0.8 h
AUC(0-inf) [1, 10]: 4660 ± 1790 ng·h/mL
CL/F [1, 10]: 2.83 mL/min/kg
Vd/F [1, 10]: 0.28 ± 0.12 L/kg
half-life [1, 10]: 1.2 ± 0.7 h
Cmax [1, 10]: 2700 ± 614 ng/mL
Tmax ([1]; female, po, Fed, women, single oral dose, mean ± SD, read-out: Tmax): 8.4 ± 3.7 h
AUC(0-inf) [1, 11]: 4780 ± 2470 ng·h/mL
CL/F [1, 11]: 2.33 mL/min/kg
Vd/F [1, 11]: 0.2 ± 0.02 L/kg
half-life [1, 11]: 1.3 ± 0.5 h
Cmax [1, 11]: 2020 ± 493 ng/mL
Tmax ([1]; male, oral, only CYP2C19*1/*1 subjects, Fast, men, mean ± SD, read-out: Tmax): 3 ± 0.7 h
AUC(0-inf) [1, 12]: 4520 ± 2520 ng·h/mL
CL/F [1, 12]: 2.5 mL/min/kg
Vd/F [1, 12]: 0.23 ± 0.03 L/kg
half-life [1, 12]: 1.2 ± 0.6 h
Cmax [1, 12]: 2560 ± 581 ng/mL
Tmax ([1]; male, oral, only CYP2C19*1/*1 subjects, Fed, men, mean ± SD, read-out: Tmax): 5.3 ± 1.1 h
AUC(0-inf) [1, 13]: 6580 ± 3830 ng·h/mL
CL/F [1, 13]: 1.83 mL/min/kg
Vd/F [1, 13]: 0.18 ± 0.03 L/kg
half-life [1, 13]: 1.5 ± 0.7 h
Cmax [1, 13]: 2320 ± 581 ng/mL
Tmax ([1]; male, po, Fast, men, single oral dose, mean ± SD, read-out: Tmax): 3.1 ± 0.8 h
AUC(0-inf) [1, 14]: 4610 ± 2270 ng·h/mL
CL/F [1, 14]: 2.5 mL/min/kg
Vd/F [1, 14]: 0.25 ± 0.08 L/kg
half-life [1, 14]: 1.3 ± 0.5 h
Cmax [1, 14]: 2590 ± 601 ng/mL
Tmax ([1]; male, po, Fed, men, single oral dose, mean ± SD, read-out: Tmax): 5.6 ± 1.1 h
Ke ([1]; only CYP2C19*1/*1 subjects, Fast, men and women, mean ± SD): 0.64 ± 0.19
Ke ([1]; only CYP2C19*1/*1 subjects, Fast, men, mean ± SD): 0.64 ± 0.23
Ke ([1]; only CYP2C19*1/*1 subjects, Fast, women, mean ± SD): 0.63 ± 0.12
Ke ([1]; only CYP2C19*1/*1 subjects, Fed, men and women, mean ± SD): 0.67 ± 0.20
Ke ([1]; only CYP2C19*1/*1 subjects, Fed, men, mean ± SD): 0.67 ± 0.25
Ke ([1]; only CYP2C19*1/*1 subjects, Fed, women, mean ± SD): 0.68 ± 0.14
Compound: COc1ccnc(C[S+]([O-])c2nc3ccc(OC(F)F)cc3[nH]2)c1OC (stereo not drawn) [Pantoprazole, pantoprazole]
effect of concomitant intake of a standard breakfast on bioavailability [2]: no effect on bioavailability
